The subject of data set [1] is Staphylococcus aureus USA300 LAC strain (CA-MRSA). Format: in vivo. The note with it: in vivo, ip, 7 mg/kg.
In data set [2] the test system is vancomycin-sensitive Staphylococcus aureus Newman strain. The experiment in a line: In vitro antibacterial activity assay (MIC, CLSI dilution method). It counts as cell-based. The note with it: Staphylococcus aureus, S. aureus Newman, 37° C., 16 h.
Data set [3] can be described thus: In vivo pharmacokinetic assay in mice. The note with it: male CD-1 mice, intravenous single dose 5 mg/kg.
Data set [4] has as its system vancomycin-middle resistant Staphylococcus aureus Mu50 strain. The experiment in a line: In vitro antibacterial activity assay (MIC, CLSI dilution method). It counts as cell-based.
Where [5] appears, read: Staphylococcus aureus; S. aureus Mu50, 37° C., 16 h; read-out: MIC Mu50.
Where [6] appears, read: Staphylococcus aureus, 16 h, S. aureus Mu50, 37° C., read-out: MIC Mu50.
Where [7] appears, read: Staphylococcus aureus, 16 h, read-out: MIC Mu50.

In brackets after ≈: the same amount, converted by molar mass. Where two headings read alike, the source gives them in different places.

As for `CCCCCCCCCCNCCN[C@@]1(C)C[C@H](O[C@H]2[C@H](Oc3c4cc5cc3Oc3ccc(cc3Cl)[C@@H](O)[C@@H](NC(=O)[C@@H](CC(C)C)NC)C(=O)N[C@@H](CC(N)=O)C(=O)N[C@H]5C(=O)N[C@H]3C(=O)N[C@H](C(=O)N[C@H](C(=O)O)c5cc(O)c(CNCP(=O)(O)O)c(O)c5-c5cc3ccc5O)[C@H](O)c3ccc(c(Cl)c3)O4)O[C@H](CO)[C@@H](O)[C@@H]2O)O[C@@H](C)[C@H]1O` [Tela., telavancin, reference compound], the survival rate in data set [1] turned out to be 93.3%. For the same molecule, the MIC (in general, the lowest concentration found to suppress growth) in data set [2] was below 0.0625 µg/mL. In data set [3], this molecule registered an AUCINF_obs of 17304 ± 5745 ng·h/mL, an AUClast of 17143 ± 5611 ng·h/mL, a CL_obs of 5.1 ± 1.5 mL/min/kg and an MRTINF_obs of 1.71 ± 0.13 h. In data set [3], the T1/2 stood at 1.13 ± 0.13 h. For the same molecule, in data set [4] (setting [5]), the MIC was determined as 1 µg/mL (≈ 0.57 µM).
`CN[C@H](CC(C)C)C(=O)N[C@H]1C(=O)N[C@@H](CC(N)=O)C(=O)N[C@H]2C(=O)N[C@H]3C(=O)N[C@H](C(=O)N[C@H](C(=O)NCCCN(C)C)c4cc(O)c(CNCCOC5OC(CO)[C@@H](O)C(O)C5O)c(O)c4-c4cc3ccc4O)[C@H](O)c3ccc(c(Cl)c3)Oc3cc2cc(c3OC2O[C@H](CO)C(O)C(O)[C@H]2O[C@H]2CC(C)(NCc3ccc(-c4ccc(Cl)cc4)cc3)[C@H](O)C(C)O2)Oc2ccc(cc2Cl)[C@H]1O` (some centres unmarked) [Van021]: the results for the MIC in data set [2] (NEWMAN) and in data set [4] (setting [6]) were 2 µg/mL (≈ 1.02 µM) and 4 µg/mL (≈ 2.03 µM), respectively.
On to `CN[C@H](CC(C)C)C(=O)N[C@H]1C(=O)N[C@@H](CC(N)=O)C(=O)N[C@H]2C(=O)N[C@H]3C(=O)N[C@H](C(=O)NC(C(=O)NCCCN(C)C)c4cc(O)c(CNCCCNC(=O)[C@H](O)[C@@H](O)[C@H](O)[C@H](O)CO)c(O)c4-c4cc3ccc4O)[C@H](O)c3ccc(c(Cl)c3)Oc3cc2cc(c3OC2O[C@H](CO)C(O)C(O)[C@H]2O[C@H]2CC(C)(NCc3ccc(-c4ccc(Cl)cc4)cc3)[C@H](O)C(C)O2)Oc2ccc(cc2Cl)[C@H]1O` (some centres unmarked) [Van022], for which the MIC in data set [2] (NEWMAN) worked out at 1 µg/mL (≈ 0.5 µM); in data set [4] (setting [6]) it was 2 µg/mL (≈ 1 µM).
Regarding `CN[C@H](CC(C)C)C(=O)N[C@H]1C(=O)N[C@@H](CC(N)=O)C(=O)N[C@H]2C(=O)N[C@@H]3C(=O)N[C@H](C(=O)N[C@H](C(=O)NCCCNC(=O)[C@H](O)[C@@H](O)[C@H](O)[C@H](O)CO)c4cc(O)cc(O)c4-c4cc3ccc4O)[C@H](O)c3ccc(c(Cl)c3)Oc3cc2cc(c3OC2O[C@H](CO)C(O)C(O)[C@H]2O[C@H]2CC(C)(NCc3ccc(-c4ccc(Cl)cc4)cc3)[C@H](O)C(C)O2)Oc2ccc(cc2Cl)[C@H]1O` (some centres unmarked) [Van023], the MIC in data set [2] came to 2 µg/mL (≈ 1.06 µM); in data set [4] (setting [7]), 4 µg/mL (≈ 2.12 µM).
Consider `CCCCCCCCCCNC1(C)C[C@H](O[C@H]2C(Oc3c4cc5cc3Oc3ccc(cc3Cl)[C@@H](O)[C@@H](NC(=O)[C@@H](CC(C)C)NC)C(=O)N[C@@H](CC(N)=O)C(=O)N[C@H]5C(=O)N[C@H]3C(=O)N[C@H](C(=O)N[C@H](C(=O)O)c5cc(O)c(CNCCCNC(=O)[C@H](O)[C@@H](O)[C@H](O)[C@H](O)CO)c(O)c5-c5cc3ccc5O)[C@H](O)c3ccc(c(Cl)c3)O4)O[C@H](CO)C(O)C2O)CC(C)[C@H]1O` (some centres unmarked) [Van024], for which the MIC in data set [2] (NEWMAN) worked out at 0.125 µg/mL (≈ 0.0675 µM); in data set [4] (setting [6]), 0.5 µg/mL (≈ 0.27 µM).
Taken in the same sequence, the figures for `CCCCCCCCCCC(=O)NC1(C)C[C@H](O[C@H]2C(Oc3c4cc5cc3Oc3ccc(cc3Cl)[C@@H](O)[C@@H](NC(=O)[C@@H](CC(C)C)NC)C(=O)N[C@@H](CC(N)=O)C(=O)N[C@H]5C(=O)N[C@H]3C(=O)N[C@H](C(=O)N[C@H](C(=O)O)c5cc(O)c(CNCCCNC(=O)[C@H](O)[C@@H](O)[C@H](O)[C@H](O)CO)c(O)c5-c5cc3ccc5O)[C@H](O)c3ccc(c(Cl)c3)O4)O[C@H](CO)C(O)C2O)CC(C)[C@H]1O` (some centres unmarked) [Van025] were 16 µg/mL (≈ 8.51 µM) and 32 µg/mL (≈ 17 µM).
The like results for `CCCCCCCCCC(=O)NC1(C)C[C@H](O[C@H]2C(Oc3c4cc5cc3Oc3ccc(cc3Cl)[C@@H](O)[C@@H](NC(=O)[C@@H](CC(C)C)NC)C(=O)N[C@@H](CC(N)=O)C(=O)N[C@H]5C(=O)N[C@H]3C(=O)N[C@H](C(=O)N[C@H](C(=O)O)c5cc(O)c(CNCCCNC(=O)[C@H](O)[C@@H](O)[C@H](O)[C@H](O)CO)c(O)c5-c5cc3ccc5O)[C@H](O)c3ccc(c(Cl)c3)O4)O[C@H](CO)C(O)C2O)CC(C)[C@H]1O` (some centres unmarked) [Van026] were, in that order, 32 µg/mL (≈ 17.2 µM) and 64 µg/mL (≈ 34.3 µM).
As to `CN[C@H](CC(C)C)C(=O)N[C@H]1C(=O)N[C@@H](CC(N)=O)C(=O)N[C@H]2C(=O)N[C@H]3C(=O)N[C@H](C(=O)N[C@H](C(=O)O)c4cc(O)c(CNCCCNC(=O)[C@H](O)[C@@H](O)[C@H](O)[C@H](O)CO)c(O)c4-c4cc3ccc4O)[C@H](O)c3ccc(c(Cl)c3)Oc3cc2cc(c3OC2O[C@H](CO)C(O)C(O)[C@H]2O[C@@H]2CC(C)[C@@H](O)C(C)(NCc3cccc4ccccc34)C2)Oc2ccc(cc2Cl)[C@H]1O` (some centres unmarked) [Van027], the MIC in data set [2] (NEWMAN) turned out to be 1 µg/mL (≈ 0.54 µM); in data set [4] (setting [6]), 4 µg/mL (≈ 2.16 µM).
Regarding `CN[C@H](CC(C)C)C(=O)N[C@H]1C(=O)N[C@@H](CC(N)=O)C(=O)N[C@H]2C(=O)N[C@H]3C(=O)N[C@H](C(=O)N[C@H](C(=O)O)c4cc(O)c(CNCCCNC(=O)[C@H](O)[C@@H](O)[C@H](O)[C@H](O)CO)c(O)c4-c4cc3ccc4O)[C@H](O)c3ccc(c(Cl)c3)Oc3cc2cc(c3OC2O[C@H](CO)C(O)C(O)[C@H]2O[C@@H]2CC(C)[C@@H](O)C(C)(NCc3ccc(C#C[Si](C)(C)C)cc3)C2)Oc2ccc(cc2Cl)[C@H]1O` (some centres unmarked) [Van028], the values for the MIC in data set [2] and in data set [4] (setting [5]) were 1 µg/mL (≈ 0.527 µM) and 2 µg/mL (≈ 1.05 µM), respectively.
In the case of `C#Cc1ccc(CNC2(C)C[C@H](O[C@H]3C(Oc4c5cc6cc4Oc4ccc(cc4Cl)[C@@H](O)[C@@H](NC(=O)[C@@H](CC(C)C)NC)C(=O)N[C@@H](CC(N)=O)C(=O)N[C@H]6C(=O)N[C@H]4C(=O)N[C@H](C(=O)N[C@H](C(=O)O)c6cc(O)c(CNCCCNC(=O)[C@H](O)[C@@H](O)[C@H](O)[C@H](O)CO)c(O)c6-c6cc4ccc6O)[C@H](O)c4ccc(c(Cl)c4)O5)O[C@H](CO)C(O)C3O)CC(C)[C@H]2O)cc1` (some centres unmarked) [Van029], the MIC was found to be 4 µg/mL (≈ 2.19 µM) in data set [2] (NEWMAN) and 8 µg/mL (≈ 4.38 µM) in data set [4] (setting [6]).
As for `CCCCOc1ccc(CNC2(C)C[C@H](O[C@H]3C(Oc4c5cc6cc4Oc4ccc(cc4Cl)[C@@H](O)[C@@H](NC(=O)[C@@H](CC(C)C)NC)C(=O)N[C@@H](CC(N)=O)C(=O)N[C@H]6C(=O)N[C@H]4C(=O)N[C@H](C(=O)N[C@H](C(=O)O)c6cc(O)c(CNCCCNC(=O)[C@H](O)[C@@H](O)[C@H](O)[C@H](O)CO)c(O)c6-c6cc4ccc6O)[C@H](O)c4ccc(c(Cl)c4)O5)O[C@H](CO)C(O)C3O)CC(C)[C@H]2O)cc1` (some centres unmarked) [Van030], the MIC in data set [2] (NEWMAN) amounted to 1 µg/mL (≈ 0.534 µM); in data set [4] (setting [6]) it was 2 µg/mL (≈ 1.07 µM).
Taken in the same sequence, the figures for `CCCCCc1ccc(CNC2(C)C[C@H](O[C@H]3C(Oc4c5cc6cc4Oc4ccc(cc4Cl)[C@@H](O)[C@@H](NC(=O)[C@@H](CC(C)C)NC)C(=O)N[C@@H](CC(N)=O)C(=O)N[C@H]6C(=O)N[C@H]4C(=O)N[C@H](C(=O)N[C@H](C(=O)O)c6cc(O)c(CNCCCNC(=O)[C@H](O)[C@@H](O)[C@H](O)[C@H](O)CO)c(O)c6-c6cc4ccc6O)[C@H](O)c4ccc(c(Cl)c4)O5)O[C@H](CO)C(O)C3O)CC(C)[C@H]2O)cc1` (some centres unmarked) [Van031] were 0.125 µg/mL (≈ 0.0668 µM) and 0.5 µg/mL (≈ 0.267 µM).
As to `CN[C@H](CC(C)C)C(=O)N[C@H]1C(=O)N[C@@H](CC(N)=O)C(=O)N[C@H]2C(=O)N[C@@H]3C(=O)N[C@H](C(=O)N[C@H](C(=O)O)c4cc(O)c(CNC5C(O)OC(CO)[C@H](O)[C@@H]5O)c(O)c4-c4cc3ccc4O)[C@H](O)c3ccc(c(Cl)c3)Oc3cc2cc(c3O[C@@H]2O[C@H](CO)C(O)C(O)[C@H]2O[C@H]2CC(C)(NCc3ccc(C#C[Si](C)(C)C)cc3)[C@H](O)[C@H](C)O2)Oc2ccc(cc2Cl)[C@H]1O` (some centres unmarked) [Van033], the values for the minimum inhibitory concentration (MIC) in data set [2] and in data set [4] (setting [5]) were 0.5 µg/mL (≈ 0.274 µM) and 2 µg/mL (≈ 1.09 µM), respectively.
Turning to `CCCCCCCCCCNC1(C)C[C@H](O[C@@H]2C(O)C(O)[C@@H](CO)O[C@H]2Oc2c3cc4cc2Oc2ccc(cc2Cl)[C@@H](O)[C@@H](NC(=O)[C@@H](CC(C)C)NC)C(=O)N[C@@H](CC(N)=O)C(=O)N[C@H]4C(=O)N[C@@H]2C(=O)N[C@H](C(=O)N[C@H](C(=O)O)c4cc(O)c(CNC5C(O)OC(CO)[C@H](O)[C@@H]5O)c(O)c4-c4cc2ccc4O)[C@H](O)c2ccc(c(Cl)c2)O3)O[C@@H](C)[C@H]1O` (some centres unmarked) [Van034], the MIC was at most 0.0625 µg/mL in data set [2] (NEWMAN) and 0.25 µg/mL (≈ 0.14 µM) in data set [4] (setting [6]).
On to `C#Cc1ccc(CNC2(C)C[C@H](O[C@@H]3C(O)C(O)[C@@H](CO)O[C@H]3Oc3c4cc5cc3Oc3ccc(cc3Cl)[C@@H](O)[C@@H](NC(=O)[C@@H](CC(C)C)NC)C(=O)N[C@@H](CC(N)=O)C(=O)N[C@H]5C(=O)N[C@@H]3C(=O)N[C@H](C(=O)N[C@H](C(=O)O)c5cc(O)c(CNC6C(O)OC(CO)[C@H](O)[C@@H]6O)c(O)c5-c5cc3ccc5O)[C@H](O)c3ccc(c(Cl)c3)O4)O[C@@H](C)[C@H]2O)cc1` (some centres unmarked) [Van035], for which the MIC was 2 µg/mL (≈ 1.14 µM) in data set [2] and 8 µg/mL (≈ 4.56 µM) in data set [4] (setting [7]).
The like results for `CCCCCc1ccc(CNC2(C)C[C@H](O[C@@H]3C(O)C(O)[C@@H](CO)O[C@H]3Oc3c4cc5cc3Oc3ccc(cc3Cl)[C@@H](O)[C@@H](NC(=O)[C@@H](CC(C)C)NC)C(=O)N[C@@H](CC(N)=O)C(=O)N[C@H]5C(=O)N[C@@H]3C(=O)N[C@H](C(=O)N[C@H](C(=O)O)c5cc(O)c(CNC6C(O)OC(CO)[C@H](O)[C@@H]6O)c(O)c5-c5cc3ccc5O)[C@H](O)c3ccc(c(Cl)c3)O4)O[C@@H](C)[C@H]2O)cc1` (some centres unmarked) [Van036] were, in that order, 0.25 µg/mL (≈ 0.139 µM) and 0.5 µg/mL (≈ 0.278 µM).

The record behind these values is patent US10961278B2, “Vancomycin derivative, preparation method, pharmaceutical composition and use thereof” (SHANGHAI INSTITUTE OF MATERIA MEDICA, CHINESE ACADEMY OF …, priority 2016, dated 2021).
